Data published in patent US4086361A, “Aminoethyl oximes having anti-depressive activity” (U.S. Philips Corporation, priority 1975, dated 1978).
Counter-ions that a name gives are not always drawn.

Key:
Format in all cases: in vivo, male albino mice
[1] = test system: serotonin (5-hydroxytryptophan); test: serotonin potentiation, 5-hydroxytryptophan test; details: Mus musculus; oral, mice; 1 hour before 150 mg/kg i.p. dl-5-hydroxytryptophan
Method: The serotonin potentiation was determined in the 5-hydroxytryptophan test. For this purpose, the compounds to be tested were administered orally in a series of dosages to isolated male albino mice (5 mice per dosage) 1 hour prior to intraperitoneal administration of 150 mg/kg of dl-5-hydroxytryptophan. Thirty minutes after this threshold dosage the mice were observed individually and the following parameters were scored: stereotypical shaking of the head, spreading of the hindlegs, tremor, tendency to flee, lordosis, clonic stamping with the frontlegs. The ED50 value was calculated from the results.

monoamino oxidase (MAO) = monoamino oxidase (MAO) inhibiting effect, tryptamine hydrochloride mortality test; details: oral, mice; 1 hour before 250 mg/kg s.c. tryptamine hydrochloride; mortality after 18 hours
Method: The monoamino oxidase (MAO) inhibiting effect was determined in experiments in which a quantity of the compound to be tested was administered orally to five male albino mice. One hour later the animals were injected subcutaneously with tryptamine hydrochloride in a quantity of 250 mg/kg. […] Eighteen hours after the administration of tryptamine hydrochloride it was determined how many treated animals had died. The ED50 was determined from the results. By means of the method by Metysova, Arzneimittelforschung 13,- 1039 (1963) it was determined whether the oral administration of 200 mg of a compound to be tested to rats causes stomach ulceration.

[2] = test system: noradrenaline (tetrabenazine ptosis); test: noradrenaline potentiation, tetrabenazine test; details: Mus musculus, oral, mice, 45 min before 80 mg/kg s.c. tetrabenazine, read-out: noradrenalin potentiation ED50
Method: The noradrenaline potentiation was determined in the tetrabenazine test. In this test a quantity of the compound to be tested was administered orally to five male albino mice. After 45 minutes the animals were injected subcutaneously with 80 mg/kg of tetrabenazine. After another 45 minutes the degree of ptosis was determined and compared with the ptosis of animals which had received tetrabenazine alone. The ED50 was determined from the results.

With `CCCCCC(=NOCCN)c1ccc(Cl)cc1` [Cl CH3, reference compound] the ED50 [1] was 14 mg/kg, the “MAO inhibition ED50” value (monoamino oxidase (MAO)) was greater than 215 mg/kg and the ED50 [2] was 1.9 mg/kg.
`CCOCCCCC(=NOCCN)c1ccc(Cl)cc1` [Cl OC2 H5, 4'-chloro-5-ethoxyvalerophenone O-(2-aminoethyl) oxime fumarate (1 : 1)] was tested, and the ED50 [1] was 36 mg/kg, the “MAO inhibition ED50” value (monoamino oxidase (MAO)) was greater than 215 mg/kg and the ED50 [2] was 4.3 mg/kg.
For `CCCCC(=NOCCN)c1ccc(Cl)cc1` [Cl H, reference compound], the ED50 [1] was 12 mg/kg, the “MAO inhibition ED50” value (monoamino oxidase (MAO)) was greater than 215 mg/kg and the ED50 [2] was 5.6 mg/kg.
For `COCCOCCCCC(=NOCCN)c1ccc(Br)cc1` [Br OC2 H4 OCH3, 4'-bromo-5-(2-methoxyethoxy) valerophenone O-(2-aminoethyl) oxime fumarate (1 : 1)], the ED50 [1] was 35 mg/kg, the “MAO inhibition ED50” value (monoamino oxidase (MAO)) was greater than 215 mg/kg and the ED50 [2] was 6.6 mg/kg.
For `Cl.N#CCCCCC(=NOCCN)c1ccc(Cl)cc1` [Cl CN, 4'-chloro-5-cyanovalerophenone O-(2-aminoethyl) oxime hydrochloride], the ED50 [1] was 20 mg/kg, the “MAO inhibition ED50” value (monoamino oxidase (MAO)) was greater than 215 mg/kg and the ED50 [2] was 6.8 mg/kg.
In the case of `CCOCCCCCC(=NOCCN)c1ccc(Cl)cc1.Cl` [Cl CH2 OC2 H5, 4'-chloro-6-ethoxycaprophenone O-(2-aminoethyl) oxime hydrochloride], the ED50 [1] is reported as 54 mg/kg, the “MAO inhibition ED50” value (monoamino oxidase (MAO)) is reported as greater than 215 mg/kg and the ED50 [2] is reported as 7.4 mg/kg.
`CCCCCC(=NOCCN)c1ccc(Br)cc1` [Br CH3, reference compound] was tested, and the ED50 [1] was 10 mg/kg, the “MAO inhibition ED50” value (monoamino oxidase (MAO)) was greater than 215 mg/kg and the ED50 [2] was 3.1 mg/kg.
`COCCOCCCCC(=NOCCN)c1ccc(Cl)cc1` [Cl OC2 H4 OCH3, 4'-chloro-5-(2-methoxyethoxy) valerophenone O-(2-aminoethyl) oxime fumarate (1 : 1)] was tested, and the ED50 [1] was 41 mg/kg, the “MAO inhibition ED50” value (monoamino oxidase (MAO)) was greater than 215 mg/kg and the ED50 [2] was 4 mg/kg.
For `Cl.N#CCCCCC(=NOCCN)c1ccc(Br)cc1` [Br CN, 4'-bromo-5-cyanovalerophenone O-(2-aminoethyl) oxime hydrochloride], the ED50 [1] was 20 mg/kg, the “MAO inhibition ED50” value (monoamino oxidase (MAO)) was greater than 215 mg/kg and the ED50 [2] was 11.2 mg/kg.
For `Cl.N#CCCCCCC(=NOCCN)c1ccc(Cl)cc1` [Cl CH2 CN, 4'-chloro-6-cyanocaprophenone O-(2-aminoethyl) oxime hydrochloride], the ED50 [1] was 38 mg/kg, the “MAO inhibition ED50” value (monoamino oxidase (MAO)) was greater than 215 mg/kg and the ED50 [2] was 11 mg/kg.
`COCCCCCC(=NOCCN)c1ccc(Cl)cc1.Cl` [Cl C2 OCH3, 4'-chloro-6-methoxycaprophenone O-(2-aminoethyl) oxime hydrochloride] was tested, and the ED50 [1] was 36 mg/kg, the “MAO inhibition ED50” value (monoamino oxidase (MAO)) was greater than 215 mg/kg and the ED50 [2] was 5.3 mg/kg.
With `COCCCCC(=NOCCN)c1ccc(Br)cc1` [Br OCH3, 4'-bromo-5-methoxyvalerophenone O-(2-aminoethyl) oxime fumarate (1 : 1)] the ED50 [1] was 22 mg/kg, the “MAO inhibition ED50” value (monoamino oxidase (MAO)) was greater than 215 mg/kg and the ED50 [2] was 6.6 mg/kg.
